The values that follow come from patent publication US20250034091A1, “Small molecule inhibitors of lanosterol synthase” (Board of Regents, The University of Texas System, priority 2022, published 2025).

In test [1] the test system is enzymes downstream of LSS. Briefly: d6-EPC production from isotopically labeled EPL (d6-EPL) in cells. It counts as cell-based. The text has this:
This latter observation raised the hypothesis that Ro 48-8071 inhibited one or more enzymes downstream of LSS thereby blunting EPC synthesis. To evaluate whether Ro 48-8071 inhibits the synthesis of EPC downstream of EPL, we cultured cells with isotopically labeled EPL (d6-EPL) and measured d6-EPC production following compound treatment. Ro 48-8071 inhibited the production of d6-EPC while 1 had no effect on d6-EPC production. […] For small molecules that inhibit enzymes downstream of LSS, our prediction is that lanosterol would not be efficiently converted to cholesterol and therefore would not rescue toxicity as effectively as cholesterol. […] By comparison, exogenous lanosterol and cholesterol provided a complete and equivalent degree of rescue in cells treated with 1.

Test [2] deals with Mut6 cells. Briefly: rescue of toxicity by co-treatment with SQLE inhibitor NB-598 in Mut6 cells. The format is cell-based, murine. To be noted: co-treatment with NB-598. The text has this:
To assess whether EPC was necessary for MM0299 activity, we considered pharmacologic tools that could selectively block the shunt pathway. In the context of LSS inhibition, the production of DOS requires two cycles of oxidation by squalene epoxidase (SQLE), whereas OS only requires one. Therefore, we reasoned that co-administration of an SQLE inhibitor might have a greater effect on DOS levels and impede flux through the shunt pathway. […] Taken together, we concluded that NB-598 is a pharmacologic tool to selectively block the shunt pathway and assess the requirement for EPC for MM0299 activity. […] These observations are consistent with the hypothesis that inhibition of LSS and the consequent increase in EPC are responsible for toxicity at low nanomolar range. We noted that 1 remained toxic to Mut6 cells at higher concentrations despite the addition of NB-598. Toxicity at these concentrations, which are not likely to be pharmacologically achievable, is unlikely to be a consequence of EPC production, and more likely to be the result of sterol depletion through direct inhibition of cholesterol biosynthesis.
As a consequence, even though Ro-48-8071 inhibits LSS, its anti-proliferative effects are more likely to be multifactorial. To evaluate the contribution of EPC for Ro 48-8071-induced toxicity, we co-incubated Ro 48-8071 with increasing concentrations of NB-598.

The next test deals with Lss. Briefly: quantification of canonical and shunt pathway sterol intermediates in Mut6 cells. It counts as cell-based, mouse. The text has this:
Inhibitors of LSS block the canonical cholesterol biosynthetic pathway (referred to as the Bloch and Kandutsch-Russell pathways) and concomitantly stimulate the production of 24(S),25-epoxycholesterol (EPC) through a “shunt” pathway (Mark et al., 1996; Morand et al., 1997). For sterol synthesis, squalene, a symmetric polyene hydrocarbon intermediate in the cholesterol biosynthetic pathway, is oxidized by squalene epoxidase (SQLE) in the presence of NADPH and oxygen to generate (S)-2,3-oxidosqualene (OS), which in turn is converted by LSS into lanosterol. LSS inhibition shunts OS back to SQLE, which catalyzes a second oxidation event yielding the C2-symmetric (S,S)-2,3:22,23-dioxidosqualene (DOS). DOS is a preferred substrate for LSS and, even in the presence of an LSS inhibitor, DOS is converted by LSS into 24(S),25-epoxylanosterol (EPL) (Boutaud et al., 1992). EPL is further converted into EPC by the same enzymes that convert lanosterol into cholesterol (Nelson et al., 1981a; Nelson et al., 1981b). The overall consequence of LSS inhibition is reduced levels of canonical pathway intermediates and increased levels of shunt pathway intermediates. […] We considered that the decrease in EPC at higher concentrations might be the result of complete inhibition of LSS; however, the levels of DOS and EPL continued to increase at doses where EPC was decreasing. […] Pertinent to this hypothesis, in astrocytes, EPC stimulates the expression of sterol transporters including ABCA1 and is itself readily effluxed (Wong et al., 2007). We hypothesize that a threshold level of EPC, reached at higher concentrations of 1, activates transporter expression, leading to EPC efflux and the observed decrease in EPC levels. Taken together, we conclude that inhibition of Lss by MM0299 (1) leads to a dose-dependent decrease in canonical intermediates and an increase in shunt pathway intermediates.
To better gauge the role of EPC in the anti-cancer activity of 1, we sought to determine whether the levels of EPC achieved in cells treated with 1 are sufficient for toxicity.

The test system of a further test is Ebp, Dhcr7, and Dhcr24. Briefly: cellular levels of sterols that mark inhibition of Ebp, Dhcr7, Dhcr24. The format is cell-based. The conditions noted are these: for cellular 8,9-dehydrocholesterol (8,9-DHC) levels: marker of EBP inhibition. The text has this:
(§1) Inhibition of these sterol biosynthetic enzymes might provide an explanation for our observation that Ro-48-8071 has a blunted increase in EPC following LSS inhibition. […] Consistent with the proteomics data, Ro 48-8071 and TASIN-30, but not 1, displaced TASIN-2 (band migrating at approximately 20 kDa).
Consistent with inhibition, the cellular levels of 7-dehydrodesmosterol, a Dhcr7 substrate, accumulated following treatment with Ro 48-8071 but not 1.

Another test has as its target T1, EBP (Homo sapiens, UniProt Q15125).
T1 construct: endogenous in cells; host or cells: HCT116
Kind of test: displacement of EBP-specific photoaffinity probe TASIN-2 in HCT116 cells. It counts as binding. To be noted: 1 μM TASIN-2.
Source text: as §1

Another test deals with Dhcr7. Kind of test: displacement of Dhcr7-specific probe. The format is binding, mouse.
In test [3] the test system is Mut6 cells. Briefly: Mut6 cell survival / anti-proliferative activity. The format is cell-based, murine. To be noted: read-out: IC50, viability / anti-proliferative activity in Mut6.

T1 sequence (Q15125 whole entry): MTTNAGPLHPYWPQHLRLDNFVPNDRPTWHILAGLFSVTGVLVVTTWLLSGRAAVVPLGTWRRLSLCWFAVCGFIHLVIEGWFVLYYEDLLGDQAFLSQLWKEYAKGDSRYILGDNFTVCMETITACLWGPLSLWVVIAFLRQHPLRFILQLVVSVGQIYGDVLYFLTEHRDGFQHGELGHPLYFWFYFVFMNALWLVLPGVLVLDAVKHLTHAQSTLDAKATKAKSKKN

In the case of `C=CCN(C)CCCCCCOc1ccc(C(=O)c2ccc(Br)cc2)c(F)c1` [Ro 48-8071, reference compound], the “effect on d6-EPC production from d6-EPL” value in test [1] was “inhibited”. In addition, the “increase in the IC50 with NB-598” value with Mut6 cells [2] is recorded as 3.2 fold. Moreover, the “peak levels of EPC relative to those after 1 treatment” value with Lss is listed as 62%. Moreover, the “cellular levels of 7-dehydrodesmosterol” value in the test on Ebp, Dhcr7, and Dhcr24 (Dhcr7 substrate) is “accumulated”. Also, in the test with Ebp, Dhcr7, and Dhcr24 (marker of Dhcr24 inhibition, high doses), the accumulation of desmosterol result was “accumulation”. Also, the “cellular 8,9-dehydrocholesterol (8,9-DHC) levels” value in the test with Ebp, Dhcr7, and Dhcr24 was “accumulation”. Also, on EBP, the “displacement of TASIN-2 (EBP probe)” value is recorded as “displaced”. In addition, in the test on Dhcr7, the “displacement of Dhcr7-probe (crosslinked Dhcr7 band)” value is “displaced”. Further, the IC50 with Mut6 cells [3] was determined as 11.2 nM.
`COc1ccc(C(=O)COc2ccc(N3C(=O)[C@@H]4[C@@H]5C=C[C@@H]([C@H]6C[C@@H]56)[C@@H]4C3=O)cc2)cc1` [compound 1, (3aR,4R,4aR,5aS,6S,6aS)-2-(4-(2-(4-Methoxyphenyl)-2-oxoethoxy)phenyl)-4,4a,5,5a,6,6a-hexahydro-4,6-ethenocyclopropa[f]isoindole-1,3(2H,3aH)-dione]: the “effect on d6-EPC production from d6-EPL” value in test [1] was “no effect”. For the same compound, in the test with Mut6 cells [2], the “increase in the IC50 with NB-598” value is listed as 11.8 fold. In addition, in the test with Lss (0.1 μM compound 1), the “increase of EPC at peak” value amounted to 13.9 fold and the “peak level of EPC” value worked out at 390 ng/mg protein. Moreover, the “EPC level after lethal dose” value in the test with Lss (1 at 0.1 μM) is 342 ng EPC/mg protein. In addition, in the test on Lss (Mus musculus, read-out: IC50 of lanosterol decrease), the IC50 worked out at 45.5 nM. Further, in the test with Lss (maximum), the “dose-dependent decrease in the product lanosterol” value was “up to 24.5 fold”, the “dose-dependent increase in the primary LSS substrate OS” value is recorded as “up to 6.48 fold”, the “increase in shunt pathway intermediate DOS” value is listed as “up to 17.9 fold” and the “increase in shunt pathway intermediate EPL” value was at most 25.6 fold. Also, the “cellular 8,9-dehydrocholesterol (8,9-DHC) levels” value in the test with Ebp, Dhcr7, and Dhcr24 is recorded as “no effect”. Further, the “displacement of Dhcr7-probe (crosslinked Dhcr7 band)” value with Dhcr7 was “did not displace”.
